Tested on: Bifidobacterium animalis AMT30
Assay: Ability of Bifidobacterium animalis AMT30 to grow in the presence of selected antibiotics (shared cultures, Garche's liquid medium)
Format: cell-based
Conditions: for growth of AMT30 in the presence of the antibiotic (in words): 24 h shared culture, relative to control culture or inoculum; for The number of B. animalis AMT30 after 24 hours of incubation: inoculum AMT30 4.9 × 10^6 cfu/ml, antibiotic at concentration corresponding to the animal dose per kg b.w., control without antibiotic 2.4 × 10^9
Experimental: Studies on the ability to grow of Bifidobacterium animalis AMT30 in the presence on 20 selected antibiotics were performed using shared cultures method. For this purpose Garche's liquid medium was inoculated with both Bifidobacterium animalis AMT30 in an amount of 4.9×10^6 colony forming units/ml and one of 20 antibiotics in concentration corresponding to an antibiotic dose used in animal treatment per kilogram of body weight. The culture was carried out in three parallel tubes under anaerobic conditions at 37° C. for 24 hours. In addition, parallel control culture of the studied strain without presence of selected antibiotics was carried out. The number of the live cells was determined directly after inoculation and after 24 hours. Incubation of bacteria on Petri dishes was carried out at 37° C. for 48 hours under anaerobic conditions (sealed jar with GasPack AN0025A cartridge, Oxoid).

Compound | growth of AMT30 in the presence of the antibiotic (in words) | The number of B. animalis AMT30 after 24 hours of incubation
CCCc1ncc(C[n+]2ccccc2C)c(N)n1 [Amprolium] | Outstanding activity to multiply | 
COC(=O)Nc1nc2cc(C(=O)c3ccc(F)cc3)ccc2[nH]1 [Flubendazole] | Outstanding activity to multiply | 
c1ccc([C@H]2CN3CCSC3=N2)cc1 [Levamisole] | Outstanding activity to multiply | 
Nc1ccc(S(=O)(=O)[N-]c2cncc(Cl)n2)cc1.[Na+] [Sodium sulfachloropyrazine] | Outstanding activity to multiply | 2.4 × 10^9 cfu/ml
CC[C@H]1OC(=O)C[C@@H](O)[C@H](C)[C@@H](O[C@@H]2O[C@H](C)[C@@H](O)[C@H](N(C)C)[C@H]2O)[C@@H](CCN2C[C@H](C)C[C@H](C)C2)C[C@@H](C)C(=O)/C=C/C(C)=C/[C@@H]1CO[C@@H]1O[C@H](C)[C@@H](O)[C@@H](OC)[C@H]1OC [Tilmicosin] | remained at the level of inoculum | 
Cc1cc(-n2c(=O)[nH]c(=O)n(C)c2=O)ccc1Oc1ccc(SC(F)(F)F)cc1 [Toltrazuril] | Outstanding activity to multiply | 
CC[C@H]1OC(=O)C[C@@H](O)[C@H](C)[C@@H](O[C@@H]2O[C@H](C)[C@@H](O[C@H]3C[C@@](C)(O)[C@@H](O)[C@H](C)O3)[C@H](N(C)C)[C@H]2O)[C@@H](CC=O)C[C@@H](C)C(=O)/C=C/C(C)=C/[C@@H]1CO[C@@H]1O[C@H](C)[C@@H](O)[C@@H](OC)[C@H]1OC [Tylosin] | remained at the level of inoculum | 
CC[C@H]1OC(=O)C[C@@H](OC(C)=O)[C@H](C)[C@@H](O[C@@H]2O[C@H](C)[C@@H](O[C@H]3C[C@@](C)(O)[C@@H](OC(=O)CC(C)C)[C@H](C)O3)[C@H](N(C)C)[C@H]2O)[C@@H](CC=O)C[C@@H](C)C(=O)/C=C/C(C)=C/[C@@H]1CO[C@@H]1O[C@H](C)[C@@H](O)[C@@H](OC)[C@H]1OC [Tylvalosin] |  | 3.2 × 10^5 cfu/ml
Colistin | Outstanding activity to multiply | 1.9 × 10^9 cfu/ml
Neomycin | Outstanding activity to multiply | 3.3 × 10^7 cfu/ml
